{"source": "patent US10874719B2", "about": "“Nucleotide phosphate dissipation as a treatment for vascular disorders” (THE REGENTS OF THE UNIVERSITY OF MICHIGAN, priority 2007, dated 2020)", "key": {"IFN-γ and IL-2 mRNA": {"system": "IFN-γ and IL-2 mRNA", "assay": "Tracheal allograft T-helper 1 cytokine mRNA, real time PCR", "format": "in vivo, mouse", "settings": "compared with vehicle; for expression of IFN-γ mRNA: wild type allograft", "source_text": "A heterotopic model, characterized by epithelial and subepithelial lymphocyte infiltration by one was also used (Lama, et al, Am J Pathol 169: 47-60, 2006). Donor tracheas were harvested as described above. The trachea was inserted in a subcutaneous pouch created after a 3-mm incision and blunt dissection in the back of the neck. The skin pocket was closed with a size 5.0 nylon suture.\nTotal RNA was extracted from frozen each mouse tracheas using RNeasy Mini Protocol for Tissues (Qiagen, Valencia, Calif.) and reverse transcribed using a High Capacity cDNA Archive Kit (ABI, Foster City, Calif.), in each case according to the manufacturer's instructions. One microgram of sample RNA was transcribed to cDNA. Real-time PCR was performed on an Applied Biosystems 7000 Real-Time PCR System (ABI) data collection system, and analyses were performed using the accompanying software.\nPCR fluorogenic probes for all the target genes and the endogenous reference were purchased as TaqMan® Gene Expression Assays (ABI).\nA2A receptor agonist 2-p-(2-carboxyethyl) phenethylamino-5′-N-ethylcarboxamidoadenosine (CGS-21680, 2 mg/kg/day), A2A receptor antagonist 5-Amino-7-(β-phenylethyl)-2-([…])pyrazolo(4,3-e)-1,2,4-triazolo1,5-c pyrimidine (SCH-58261, 2 mg/kg/day), A3 receptor agonist [2-chloro-N^6-(3-iodobenzyl)adenosine-5′-N-methyluronamide (Cl-IBMECA 1 mg/kg/day), A3 receptor antagonist 3-Ethyl 5-benzyl 2-methyl-6-phenyl-4-phenylethynyl-1,4-(±)-dihydropyridine-3,5-dicarboxylate (MRS 1191 2 mg/kg/day) or vehicle (0.1% DMSO in PBS) was administered in a sterile 0.1-ml volume by intraperitoneal injection every 12 hours after surgery. The doses of the adenosine-receptor agonists' were chosen according to previous studies (Erdmann, et al, Blood 105: 4707, 4714, 2005; Hasko, et al, Faseb J 14: 2065-2074, 2000; Satoh, et al, Pancreas 24: 75-82, 2002; Satoh, Gastroenterology 119: 829-836, 2000). The adenosine receptor agonists and antagonists were obtained from Sigma Chemicals (St. Louis, Mo.)."}, "[1]": {"system": "endothelial cell line bEnd.3 with T lymphocytes", "assay": "Allomismatched simple coculture of endothelial cells and T lymphocytes", "format": "cell-based, mouse", "settings": "72-h coculture with CD73−/− T-lymphocytes, addition of APCP", "source_text": "(§1) T lymphocytes were purified from splenocytes of CD73^+/+ and CD73^−/− mice (H-2^b) using a Dynal mouse T cell negative isolation kit (Invitrogen). The BALB/c (H-2^d)-derived endothelial cell line bEnd.3 was obtained from American Type Culture Collection (Manassas, Va.).\n(§2) To further elucidate the effects of CD73 on interactions between endothelial cells and T lymphocytes found in cardiac allografts, we performed an allomismatched coculture of endothelial cells (H-2^d) and lymphocytes (H-2^b; CD73^+/+ or CD73^−/−) with or without APCP in vitro. First, we evaluated the contribution of T lymphocytes to endothelial cells on the simple coculture experiments. […] Next, we evaluated the contribution of endothelial cells to T lymphocytes utilizing transmigration coculture experiments."}, "[2]": {"system": "T lymphocytes transmigrating across bEnd.3 endothelial cells", "assay": "Allomismatched transmigration coculture of endothelial cells and T lymphocytes", "format": "cell-based, mouse", "source_text": "as §1, §2"}, "tracheal allografts": {"system": "tracheal allografts", "assay": "Orthotopic trachea transplant model: graft luminal occlusion and CD3 positive T cell infiltration", "format": "in vivo, mouse", "source_text": "Two well-established tracheal transplant models were used to study the effect of CD73 on the pathogenesis of allograft rejection. The first model was the previously described double lumen airway (orthotopic) transplant model for studying chronic airway rejection (Harada, et al, Am J Physiol Lung Cell Mol Physiol 293: […]-130, 2007; Minamoto, et al, J Exp Med 202: 283-294, 2005). Briefly, after anesthesia, donor mice were exsanguinated, and whole trachea was harvested by transecting below the cricoid cartilage distal to the […] bifurcation under sterile conditions. Recipient mice were similarly anesthetized, and the whole trachea was exposed. Distal (the seventh intercartilaginous space) and proximal (immediately subjacent to the cricoid cartilage area) orifices positioned on the recipient trachea were anastomosed with both ends of the tracheal graft. This air permissive model mimics lymphocytic bronchitis and allows studies focusing on inflammation. All surgeries were performed using a Leitz-Wild surgical microscope (Urban Engineering, Burbank, Calif.) under ×16 magnifications. Grafts were harvested at the indicated time points and embedded en bloc in Tissue Freezing Medium (Triangle Biomedical Sciences, Durham, N.C.) in Disposable Base Molds (Richard-Allan Scientific, Kalamazoo, Mich.) in liquid nitrogen and stored at -80° C. until the time of analysis. For the orthotopic model histochemical staining was performed for elastin (Accustain; Sigma-Aldrich) to determine graft luminal occlusion on 5-μm-thick sections. Immunostaining was also performed using, serial adjacent sections from each group, with primary antibodies directed against a pan-T-cell marker (hamster anti-mouse CD3; BD Pharmingen, San Diego, Calif.). Morphometric measurements of cross-sectional areas were performed by blindly tracing both epithelial and subepithelial areas using a computer-assisted image analysis system (AxoCamHR; Carl Zeiss Microimaging, Thornwood, N.Y.). […]-130, 2007). Quantitative analysis of T cell infiltration was performed by manually counting the number of CD3-positive cells in epithelial and subepithelial layer under high-power magnified fields. […] The doses of the adenosine-receptor agonists' were chosen according to previous studies ([…], et al, Blood 105: 4707, 4714, 2005; Hasko, et al, Faseb J 14: 2065-2074, 2000; Satoh, et al, Pancreas 24: 75-82, 2002; Satoh, Gastroenterology 119: 829-836, 2000). The adenosine receptor agonists and antagonists were obtained from Sigma Chemicals (St. Louis, Mo.)."}, "cardiac allografts [3]": {"system": "cardiac allografts", "assay": "Heterotopic cardiac transplantation: graft survival", "format": "in vivo, mouse", "experimental": "Completely allomismatched murine heterotopic cardiac transplantation was performed for the present study, as previously described in detail by us^13. Two groups (n=6 in each group) were used to study donor sources of CD73 (CD73^+/+ or CD73^−/− donors into B10A recipients) and another two groups (n=6 in each group) were used to study recipient sources (B10A donors into CD73^+/+ or CD73^−/− recipients). In experiments of adenosine receptor modulators, CBA/J mice were used as donors or recipients instead of B10A mice (n=4 to 6 in each group, as indicated).\nDatabase management and statistical analysis were performed with the Statview version 5.0 software (SAS institute Inc., Cary, N.C.). All values are expressed as means±SEM. Kaplan-Meier analysis was performed to evaluate graft survival, and survival differences were compared by a log-rank test. Comparisons among groups were performed with an unpaired Student t test or one-way analysis of variance (ANOVA) where appropriate. Values of P<0.05 were considered statistically significant.\n(§3) To further evaluate the CD73-mediated contribution of specific AR subtypes during allograft rejection or CAV, we performed heterotopic cardiac transplantation using AR modulators given intraperitoneally. First, we examined which AR is acutely responsible for increased vascular leakage in the murine heterotopic cardiac transplantation model. […] Based on the results of this graft permeability assay, we selected A2AR agonists (A2A, CGS21680; A2B, NECA) to establish their potential effects on cardiac allograft rejection or vasculopathy. […] The next set of experiments was designed to measure the role of the A2BAR in CAV."}, "cardiac allografts [4]": {"system": "cardiac allografts", "assay": "Heterotopic cardiac transplantation: cardiac allograft vasculopathy, luminal occlusion of graft coronary arteries", "format": "in vivo, mouse", "settings": "day 30 post-transplantation, both CD73+/+ and CD73−/− donors or recipients, vs wild-type non-treatment controls", "experimental": "Completely allomismatched murine heterotopic cardiac transplantation was performed for the present study, as previously described in detail by us^13. Two groups (n=6 in each group) were used to study donor sources of CD73 (CD73^+/+ or CD73^−/− donors into B10A recipients) and another two groups (n=6 in each group) were used to study recipient sources (B10A donors into CD73^+/+ or CD73^−/− recipients). In experiments of adenosine receptor modulators, CBA/J mice were used as donors or recipients instead of B10A mice (n=4 to 6 in each group, as indicated). […]\nas §3"}, "[5]": {"settings": "CD73−/− donors or recipients, compared with wild-type non-treatment controls"}, "[6]": {"settings": "compared with non-treatment controls"}}, "data": [{"smiles": "CCOC(=O)C1=C(C)NC(c2ccccc2)=C(C(=O)OCc2ccccc2)C1C#Cc1ccccc1", "note": "(racemic) [MRS 1191, 3-Ethyl 5-benzyl 2-methyl-6-phenyl-4-phenylethynyl-1,4-(±)-dihydropyridine-3,5-dicarboxylate]", "values": [{"measurement": "expression of IFN-γ mRNA", "setting": "IFN-γ and IL-2 mRNA", "result": "did not affect"}]}, {"smiles": "Nc1ncnc2c1ncn2[C@@H]1O[C@H](COP(=O)(O)CP(=O)(O)O)[C@@H](O)[C@H]1O", "note": "[APCP]", "values": [{"measurement": "endothelial cell TNF-α mRNA upregulation", "setting": "[1]", "result": "significantly enhanced"}, {"measurement": "endothelial cell VCAM-1 mRNA upregulation", "setting": "[1]", "result": "significantly enhanced"}, {"measurement": "transmigration of T-lymphocytes", "setting": "[2]; 24-h coculture of CD73−/− T-lymphocytes", "result": "significantly enhanced"}, {"measurement": "IFN-γ mRNA upregulation in post-transmigrated T-lymphocytes", "setting": "[2]; coculture of CD73−/− T-lymphocytes", "result": "no significant enhancement"}]}, {"smiles": "CCNC(=O)[C@H]1O[C@@H](n2cnc3c(N)nc(NCCc4ccc(CCC(=O)O)cc4)nc32)[C@H](O)[C@@H]1O", "note": "[CGS-21680, 2-p-(2-carboxyethyl) phenethylamino-5′-N-ethylcarboxamidoadenosine]", "values": [{"measurement": "CD3 positive cell infiltrations", "setting": "tracheal allografts; CD73−/− allografts, mean±SEM", "result": "79±28"}, {"measurement": "luminal obliteration", "setting": "tracheal allografts; CD73−/− allografts, mean±SEM", "result": "36±3", "unit": "%"}, {"measurement": "CD3 positive cell infiltrations", "setting": "tracheal allografts; wild type allografts, compared with vehicle", "result": "less"}, {"measurement": "graft luminal obliteration", "setting": "tracheal allografts; wild type allografts, compared with vehicle, 1 week after transplantation, i.p. every 12 hours", "result": "significantly reduced"}, {"measurement": "expression of IFN-γ mRNA", "setting": "IFN-γ and IL-2 mRNA", "result": "down-regulated"}, {"measurement": "expression of IL-2 mRNA", "setting": "IFN-γ and IL-2 mRNA; wild type allografts", "result": "down-regulated"}, {"measurement": "graft survival", "setting": "cardiac allografts [3]; [5]", "result": "no significant increase"}, {"measurement": "graft survival", "setting": "cardiac allografts [3]; [6]", "result": "significantly increased"}]}, {"smiles": "CNC(=O)[C@H]1O[C@@H](n2cnc3c(NCc4cccc(I)c4)nc(Cl)nc32)[C@H](O)[C@@H]1O", "note": "[Cl-IBMECA, 2-chloro-N^6-(3-iodobenzyl)adenosine-5′-N-methyluronamide]", "values": [{"measurement": "expression of IFN-γ mRNA", "setting": "IFN-γ and IL-2 mRNA", "result": "did not affect"}]}, {"smiles": "CCNC(=O)[C@H]1O[C@@H](n2cnc3c(N)ncnc32)[C@H](O)[C@@H]1O", "note": "[NECA]", "values": [{"measurement": "graft survival", "setting": "cardiac allografts [3]; [5]", "result": "significantly increased"}, {"measurement": "graft survival compared with CGS21680-treated recipients", "setting": "cardiac allografts [3]; NECA-treated vs CGS21680-treated recipients", "result": "significantly longer"}, {"measurement": "graft survival", "setting": "cardiac allografts [3]; [6]", "result": "significantly increased"}, {"measurement": "severity of luminal occlusion", "setting": "cardiac allografts [4]", "result": "significantly attenuated"}]}, {"smiles": "Nc1nc2c(cnn2CCc2ccccc2)c2nc(-c3ccco3)nn12", "note": "[SCH-58261, 5-Amino-7-(β-phenylethyl)-2-([…])pyrazolo(4,3-e)-1,2,4-triazolo1,5-c pyrimidine]", "values": [{"measurement": "expression of IFN-γ mRNA", "setting": "IFN-γ and IL-2 mRNA", "result": "did not affect"}]}]}
